The results in this text go back to ChEMBL document CHEMBL1817576, “Specific inhibitions of annonaceous acetogenins on class II 3-hydroxy-3-methylglutaryl coenzyme A reductase from Streptococcus pneumoniae” (Bioorg Med Chem, 2011).

pKi: −log10 of the molar value.

Assay [1] is described as follows: Inhibition of Streptococcus pneumoniae recombinant HMGR class II expressed in Escherichia coli using HMG-CoA as substrate.
Assay [2] relates to Streptococcus pneumoniae. As to the kind of experiment: Ratio Ki for lovastatin to compound for recombinant Streptococcus pneumoniae HMGR class II.
Assay [3] is described as follows: Inhibition of Listeria monocytogenes recombinant HMGR class II expressed in Escherichia coli using HMG-CoA as substrate.
A short description of assay [4]: Inhibition of Staphylococcus aureus recombinant HMGR class II expressed in Escherichia coli using HMG-CoA as substrate.
Assay [5] can be described thus: Inhibition of Archaeoglobus fulgidus HMGCR 1 recombinant HMGR class II expressed in Escherichia coli using HMG-CoA as substrate.
The nature of assay [6]: Inhibition of Pseudomonas mevalonii recombinant HMGR class II expressed in Escherichia coli using HMG-CoA as substrate. Also on record: species or system Pseudomonas sp. 'mevalonii'.
Assay [7] relates to Streptococcus pneumoniae. As to the kind of experiment: Activity of Streptococcus pneumoniae recombinant HMGR class II expressed in Escherichia coli BL21(DE3) using NADPH as substrate after 5 min by microplate reader.
Assay [8] concerns Listeria monocytogenes. In words: Activity of Listeria monocytogenes HMGR class II expressed in Escherichia coli BL21(DE3) using NADPH as substrate after 5 min by microplate reader.
In assay [9] the test system is Staphylococcus aureus. As to the kind of experiment: Activity of Staphylococcus aureus HMGR class II expressed in Escherichia coli BL21(DE3) using NADPH as substrate after 5 min by microplate reader.
The test system of assay [10] is Haloferax volcanii. In words: Activity of Haloferax volcanii HMGR class I expressed in Escherichia coli BL21(DE3) using NADPH as substrate after 5 min by microplate reader.
Assay [11] is filed under the species Mesocricetus auratus. As to the kind of experiment: Activity of syrian hamsters HMGR class I expressed in Escherichia coli BL21(DE3) using NADPH as substrate after 5 min by microplate reader.
Assay [12] has as its system Streptococcus pneumoniae. As to the kind of experiment: Ratio of Kcat to Km for Streptococcus pneumoniae HMGR class II using NADPH substrate.
In assay [13] the test system is Listeria monocytogenes. In words: Ratio of Kcat to Km for Listeria monocytogenes HMGR class II using NADPH substrate.
In assay [14] the test system is Haloferax volcanii. In words: Activity of Haloferax volcanii HMGR class I expressed in Escherichia coli BL21(DE3) using HMG-CoA substrate after 1 min by microplate reader.
The species named for assay [15] is Mesocricetus auratus. In words: Activity of syrian hamsters HMGR class I expressed in Escherichia coli BL21(DE3) using HMG-CoA substrate after 1 min by microplate reader.
The subject of assay [16] is Streptococcus pneumoniae. As to the kind of experiment: Activity of Streptococcus pneumoniae recombinant HMGR class II expressed in Escherichia coli BL21(DE3) using HMG-CoA substrate after 1 min by microplate reader.
Assay [17] deals with Listeria monocytogenes. As to the kind of experiment: Activity of Listeria monocytogenes HMGR class II expressed in Escherichia coli BL21(DE3) using HMG-CoA substrate after 1 min by microplate reader.
Assay [18] relates to Staphylococcus aureus. In words: Activity of Staphylococcus aureus HMGR class II expressed in Escherichia coli BL21(DE3) using HMG-CoA substrate after 1 min by microplate reader.

For `CCCCCC[C@H](O)CCC[C@H](O)[C@H]1CC[C@H]([C@H](O)CC[C@H](O)[C@@H]2CC[C@@H](CCCCCCCCCC3=C[C@H](C)OC3=O)O2)O1` [SQUAMOSTATIN A], the negative-log Ki (pKi) in [1] was 5.19.
Same read-out and setting: the same measure for `CCCCC[C@H](O)CCCC[C@H](O)[C@H]1CC[C@H]([C@H]2CC[C@H]([C@H](O)CCCCCCCCCCCCC3=C[C@H](C)OC3=O)O2)O1` [MOTRILIN]: 4.69.
As for `CC[C@H](C)C(=O)O[C@H]1C[C@@H](C)C=C2C=C[C@H](C)[C@H](CC[C@@H]3C[C@@H](O)CC(=O)O3)[C@H]21` [LOVASTATIN], the negative-log Ki (pKi) in assay [1] was 3.93; in assay [3] it was 3.89; in assay [4], 3.49; in [5], 3.28; in [6], 3.74. For the same compound, in assay [2], the Ratio Ki turned out to be 20.
For the compound `CCCCCCCCCCC(O)C1CCC(C2CCC(C(O)CCCCCCCC[C@H](O)CC3=C[C@@H](C)OC3=O)O2)O1` (some centres undefined) [ASIMICIN], in assay [1], the pKi is 4.91.
As for `NC(=O)c1ccc[n+]([C@@H]2O[C@H](COP(=O)([O-])OP(=O)(O)OC[C@H]3O[C@@H](n4cnc5c(N)ncnc54)[C@H](OP(=O)(O)O)[C@@H]3O)[C@@H](O)[C@H]2O)c1`, the Michaelis constant (Km) in assay [7] was 38.9 µM; in assay [8], 12.9 µM; in assay [9], 70 µM; in assay [10], 66 µM; in assay [11] it was 80 µM. The results for the catalytic constant (kcat) in assay [7] and in assay [8] were 11.9 s⁻¹ and 22.6 s⁻¹, respectively. The values for the kcat/Km in assay [12] and in [13] were 322000 M⁻¹ s⁻¹ and 186000 M⁻¹ s⁻¹, respectively.
For the compound `CC(C)(CO[P@@](=O)(O)O[P@@](=O)(O)OC[C@H]1O[C@@H](n2cnc3c(N)ncnc32)[C@H](O)[C@@H]1OP(=O)(O)O)[C@@H](O)C(=O)NCCC(=O)NCCSC(=O)C[C@@](C)(O)CC(=O)O`, the Km in assay [14] is 60 µM; in [15], 20 µM; in assay [16], 75.9 µM; in [17] it was 19.8 µM; in assay [18], 40 µM.
For `CCCCCCCCCC[C@H](O)[C@H]1CC[C@H]([C@H](O)CC[C@H](O)[C@@H]2CC[C@@H](CCCCCCC[C@@H](O)CC3=C[C@H](C)OC3=O)O2)O1` [BULLATALICIN], the negative logarithm of the Ki (pKi) in assay [1] is 4.75.

A word on the pKi: it is −log10 of the Ki, conventionally taken in molar units. What is called Km is the concentration of substrate that gives half-maximal velocity. As usually defined, the kcat is the number of substrate molecules converted per active site and unit of time at saturation. Usually kcat/Km stands for the turnover number divided by the Michaelis constant.
